According to patent US5646121A, “Pseudopeptides with antiviral activity” (Bayer Aktiengesellschaft, priority 1993, dated 1997):
Where two headings read alike, the source gives them in different places.

Legend:
HCMV (Davis) = test: Anti-HCMV screening test: inhibition of the cytopathogenic effect in HELF cell cultures; format: cell-based, human cytomegalovirus; details: for IC50: HCMV (Davis)-infected HELF cells, 6 days, concentration causing 50% inhibition of the CPE; for SI: selectivity index, defined by footnote 3 (drawing 26), HELF CIC50 versus HCMV IC50
Protocol: (§1) The anti-HCMV effect was determined in a screening test system in 96-well microtitre plates, making use of human embryonic lung fibroblasts (HELF) cell cultures. The influence of the substances on the spread of the cytopathogenic effect was compared with that of the reference substance ganciclovir (Cymevene® sodium), a clinically approved anti-HCMV chemotherapeutic agent.
(§2) The substances dissolved in DMSO (dimethyl sulphoxide) (at 50 mM concentration) are investigated on microtitre plates (96-well) at final concentrations of 1,000-0.00048 μM (micromolar) in double determinations (4 substances/plate). The conditions are such that both toxic and cytostatic effects of the substances are recorded. Once the appropriate substance dilutions (1:2) have been made on the microtitre plate, a suspension of 50-100 HCMV-infected HELF cells and 3×10^4 non-infected HELF cells in Eagle's MEM (minimal essential medium) containing 10% foetal calf serum is added to each well and the plates are then incubated at 37° C. in a CO2 incubator for a period of 6 days. […] After staining with neutral red and fixing with formalin/methanol, the plates are evaluated with the aid of a projection microscope (plaque viewer).

[1] = system: human embryonic lung fibroblasts (HELF); test: Anti-cellular effect on HELF cells in the anti-HCMV screening test
Protocol: as §1, §2

Row | Compound | IC50 (HCMV (Davis)) | SI (HCMV (Davis)) | CIC50 (HELF) [1] | IC50 (HCMV (Davis); Human betaherpesvirus 5, 144 h) | CIC50 (HELF) ([1]; HELF cells, 6 days incubation, highest concentration which does not show any obvious anticellular effect)
1 | Cc1ccc(S(=O)(=O)NC(=N)NCCC[C@H](NC(=O)OCc2ccccc2)C(=O)N[C@H](C(=O)NC(C=O)Cc2ccccc2)C(C)(C)C)cc1 (stereo partly drawn) [Example 50, (2R,S)-2-[Nα-(Benzyloxycarbonyl)-N^G -(4-methyl-phenylsulphonyl)-S-arginyl-S-(tert-butyl)glycinyl]amino-3-phenyl-propan-1-al] | 4 nM | 700 | 2.8 µM | – | –
2 | Nc1nc(O)c2ncn(COC(CO)CO)c2n1 [Cymevene.Na, ganciclovir] | – | 32-64 | – | 2000 to 4000 nM | 125 µM
